# In patent US9416181B2, “Compositions for cell culture and methods of using the same” (AbbVie Inc., priority 2013, dated 2016):
# Columns and labels:
# [1] = tested on: Cell Line 1 (CHO) expressing Antibody 1; experiment: Acidic species variants (WCX-10) of Antibody 1, Cell Line 1 shake flask fed-batch culture; format: cell-based, Chinese Hamster; conditions: shaker; for reduction of total acidic species content, absolute value: vs unsupplemented control
# Experimental: (§1) A recombinant Chinese Hamster Ovary (CHO) cell line (Cell Line 1) expressing a humanized monoclonal antibody (Antibody 1) was evaluated in 2 different cultures vessels (shaker flasks and 3 L laboratory-scale bioreactors). The cell line was of CHO DUX-B11 origin based on a DHFR (dihydrofolate reductase) expression system and cultured in a chemically defined basal media, and fed periodically with a chemically-defined feed media (CDFM). The media utilized throughout all of the experiments were chemically-defined, and both animal-component free, and protein-free. Each of the respective media were supplemented as needed with selected bioflavonoids to evaluate for their potential impact on the resulting acidic species profile. In preparation of the cultures, the cell lines were serially expanded through separate seed train inoculums to generate enough cells for inoculation. Process conditions utilized during the cultures were slightly different depending on the culture scale, but similar within each scale to the respective non-bioflavonoid supplemented control conditions. All bioflavonoids utilized were purchased from Sigma-Aldrich (St. Louis, Mo.).
# (§2) Samples were analyzed using an HPLC system equipped with a ProPac WCX-10 analytical column (Thermo Scientific, Sunnyvale, Calif.). Approximately 100 μg of sample was loaded in 6% Buffer B (10 mM sodium phosphate, 500 mM NaCl, pH 5.5) and 94% Buffer A (10 mM sodium phosphate, pH 7.5). The column was run at a flow rate of 1.0 mL/min. The protein was eluted from the column by increasing the buffer B composition from 6% to 16% over 20 minutes. The protein peaks were measured using UV absorbance at 280 nm as the peaks eluted from the column. The column was regenerated using 100% buffer B followed be a re-equilibration period using initial condition before the injection of the next sample. Peaks eluting before the main peak were termed “acidic peaks” and peaks eluting after the main peak were called “basic peaks” (FIG. 2).
# In this Example, EGCG was added into the feed (cell culture medium) at the concentration range of 5 mg/L (low), 20 mg/L (mid) and 50 mg/L (high) in a shaker experiment to determine the impact of EGCG on product quality of a humanized monoclonal antibody (Antibody 1). Detailed cell culture conditions are as described in Table 1.
# However, it was not clear whether or not additional bioflavonoids would also have the same effects. To evaluate the impact of alternative bioflavonoids, fed-batch shake flask cultures were initiated with CDFM supplemented with 3 different concentrations of genistein, rutin, and naringin, in addition to EGCG. Cell growth, viability, as well as titers and acidic species variants were measured.
# Charge Heterogeneity via Weak Cation Exchange Chromatography-Samples were analyzed using an HPLC system equipped with a ProPac WCX-10 analytical column (Thermo Scientific, Sunnyvale, Calif.). Approximately 100 μg of sample was loaded in 6% Buffer B (10 mM sodium phosphate, 500 mM NaCl, pH 5.5) and 94% Buffer A (10 mM sodium phosphate, pH 7.5). The column was run at a flow rate of 1.0 mL/min. The protein was eluted from the column by increasing the buffer B composition from 6% to 16% over 20 minutes. The protein peaks were measured using UV absorbance at 280 nm as the peaks eluted from the column. The column was regenerated using 100% buffer B followed be a re-equilibration period using initial condition before the injection of the next sample. Peaks eluting before the main peak were termed ‘acidic peaks’ and peaks eluting after the main peak were called ‘basic peaks’ (FIG. 2).
# To evaluate the impact of other bioflavonoids, fed-batch shake flask cultures were initiated with CDFM supplemented with multiple concentrations of rutin. Cell growth, viability, as well as titers and acidic species variants were measured and shown in FIGS. 14 and 15, respectively.
# [2] = tested on: Cell Line 1 (CHO) expressing Antibody 1; experiment: Acidic species variants (WCX-10) of Antibody 1, Cell Line 1 3 L bioreactor fed-batch culture; format: cell-based, Chinese Hamster; conditions: for drop in absolute acidic species percentage points: 3 L bioreactor; for drop in absolute acidic species percentage points / relative total AR (ratio to Day 8 value of unsupplemented control): Day 15 harvest
# Experimental: as §1, §2
# In the next experiment, lab-scale bioreactors were used to (1) confirm the shaker experiment results and (2) to determine whether higher concentration range of EGCG is suitable for supplementing into cell culture. EGCG was added to the feed of the batch culture at the concentrations of 20 mg/L (mid), 50 mg/L (high) and 125 mg/L (high+) and 250 mg/L (high++) in this reactor experiment.
# Cell Line 1 was evaluated in larger-scale feed batch cultures with the feed media supplemented with various bioflavonoids. […] By contrast, cell growth performance was slightly different for the 0.1 g/L EGCG supplemented condition. […] However, the cell viability remained high at 0.1 g/L EGCG. All cultures were successfully harvested on Day 15 post-inoculation. The harvest titers measured from the evaluated cultures were similar.
# Cell Line 1 was also evaluated in laboratory-scale fedbatch cultures with the feed media supplemented with various bioflavonoids. […] Cell growth performance was slightly different however with the 0.1 g/L EGCG supplemented condition. […] All cultures were able to be successfully harvested on Day 15 post-inoculation.
# [3] = 50, 125 and 250 mg/L in feed, bioreactor
structure (smiles),measurement,setting,value
"O=C(O[C@@H]1Cc2c(O)cc(O)cc2O[C@@H]1c1cc(O)c(O)c(O)c1)c1cc(O)c(O)c(O)c1 [EGCG, epigallocatechin gallate]","reduction of total acidic species content, relative value",[1]; 5 mg/L in feed,5%
same,"reduction of total acidic species content, absolute value",[1]; 5 mg/L in feed,1%
same,"reduction of total acidic species content, relative value",[1]; 20 mg/L in feed,10%
same,"reduction of total acidic species content, absolute value",[1]; 20 mg/L in feed,2%
same,"reduction of total acidic species content, relative value",[1]; 50 mg/L in feed,35%
same,"reduction of total acidic species content, absolute value",[1]; 50 mg/L in feed,7%
same,drop in absolute acidic species percentage points,[2]; 0.05 g/L in CDFM,4%
same,relative total AR (ratio to Day 8 value of unsupplemented control),"[2]; 0.05 g/L in CDFM, bioreactor",1.10
same,drop in absolute acidic species percentage points,[2]; 0.1 g/L in CDFM,10%
same,relative total AR (ratio to Day 8 value of unsupplemented control),"[2]; 0.1 g/L in CDFM, bioreactor",0.69
same,"reduction of total acidic species content, absolute value",[2]; [3],at least 2%
same,"reduction of total acidic species content, relative value",[2]; [3],≥ 16%
